According to publication PMC9698057, “Insights into Antimalarial Activity of N-Phenyl-Substituted Cinnamanilides” (Molecules, 2022):
Several values for one entry are separate records, joined by “and”; a condition that tells them apart may be missing. Equal entries are not always repeated. Where two headings read alike, the source gives them in different places.

Columns and labels:
[1] = Lipophilicity determination by RP-HPLC (log of capacity factor k); assay type: physicochemical; settings: C18, isocratic methanol 72%/water 28%
Protocol: Among the important parameters characterizing the physicochemical properties of the compounds, we studied the lipophilicity and electronic relations in the molecule. […] The lipophilicity was determined using RP-HPLC as the logarithm of capacity factor k. The retention times of individual compounds were determined under isocratic conditions, with methanol as an organic modifier in the mobile phase using end-capped non-polar C18 stationary RP columns. In addition, the lipophilicity expressed as log P and Clog P was calculated using two commercially available programs: ACD/Percepta ver.
A chromatographic column Symmetry® C18 5 μm, 4.6 × 250 mm, Part No. W21751W016 (Waters Corp., Milford, MA, USA) was used. The HPLC separation process was monitored by the EZ CHROM Elite® software ver. 3.2.0 (Hitachi High Technologies America). The total flow of the column was 1.0 mL/min, injection 10 μL, column temperature 40 °C, and sample temperature 10 °C. The detection wavelength 214 nm was chosen. A KI methanolic solution was used for the dead time (tD) determination. Retention times (tR) were measured in minutes. […] The capacity factors were calculated according to the formula k = (tR − tD)/tD, where tR is the retention time of the solute and tD is the dead time obtained using an unretained analyte. Each experiment was repeated three times.

[2] = tested on: Mycobacterium tuberculosis H37Ra/ATCC 25177; set-up: method as in PMID 30087309, PMID 32916979; settings: M. tuberculosis H37Ra/ATCC 25177; cited from earlier work
[3] = tested on: Plasmodium falciparum 3D7/MRA-102; assay: In vitro antiplasmodial activity; assay type: cell-based; settings: for IC50: chloroquine-sensitive strain 3D7/MRA-102, 48 h incubation, n = 3, read-out: Pf IC50 ± SD; for antiplasmodial activity in words: P. falciparum 3D7/MRA-102
[4] = tested on: THP1-Blue™ NF-κB cells; settings: read-out: cytotoxicity IC50; human monocytic leukemia cell line THP1-Blue™ NF-κB; cited from earlier work
[5] = Plasmodium falciparum, 3D7, 48 h

Compound	log k [1]	Mtb MIC [2] [µM]	IC50 [3, 5] [µM]	IC50 [4] [µM]	antiplasmodial activity in words [3]	IC50 [3] [µM]
O=C(/C=C/c1ccccc1)Nc1cc(F)ccc1Br [Compound 23, (2E)-N-(2-bromo-5-fluorophenyl)-3-phenylprop-2-enamide]	0.4588	199	3.8 ± 0.61	–	–	–
O=C(/C=C/c1ccccc1)Nc1cc(C(F)(F)F)cc(C(F)(F)F)c1 [Compound 15, (2E)-N-[3,5-bis(trifluoromethyl)phenyl]-3-phenylprop-2-enamide]	0.9814	22.3	6.5 ± 3.6	2.17 ± 1.19	–	–
O=C(/C=C/c1ccccc1)Nc1cc(Cl)ccc1F [Compound 19]	0.36 and 0.3692	>465	16 ± 4.2	–	–	–
O=C(/C=C/c1ccccc1)Nc1cc(Cl)c(Cl)c(Cl)c1 [Compound 35, (2E)-3-phenyl-N-(3,4,5-trichlorophenyl)prop-2-enamide]	0.9671	>395	13 ± 3.8	–	–	–
O=C(/C=C/c1ccccc1)Nc1ccc(C(F)(F)F)c(F)c1 [Compound 22]	0.5789	>414	9.3 ± 5.3	–	–	–
O=C(/C=C/c1ccccc1)Nc1ccc(Cl)c(Cl)c1 [Compound 11]	0.6821	27.4	> 35	6.28 ± 2.32	–	–
O=C(/C=C/c1ccccc1)Nc1c(Cl)cccc1Cl [Compound 10]	0.0632	876	> 35	–	–	–
O=C(/C=C/c1ccccc1)Nc1c(Br)cc(F)c(Cl)c1Br [Compound 37]	0.3139	>298	> 35	–	–	–
O=C(/C=C/c1ccccc1)Nc1ccc([N+](=O)[O-])c(C(F)(F)F)c1 [Compound 18, (2E)-N-[4-nitro-3-(trifluoromethyl)phenyl]-3-phenylprop-2-enamide]	0.5004	>381	2.2 ± 1.9	–	–	–
O=C(/C=C/c1ccccc1)Nc1ccc(Br)c(Cl)c1 [Compound 25]	0.6611	>383	8.2 ± 4.7	6.5 ± 1	–	–
O=C(/C=C/c1ccccc1)Nc1ccc(Br)cc1Br [Compound 13]	0.6152	>339	> 35	–	inactive	–
O=C(/C=C/c1ccccc1)Nc1ccc(Cl)cc1C(F)(F)F [Compound 30]	0.4113	>394	> 35	–	–	–
O=C(/C=C/c1ccccc1)Nc1cc(Cl)cc(Cl)c1 [Compound 12]	0.8155	27.4	> 35	2.43 ± 1.06	–	–
O=C(/C=C/c1ccccc1)Nc1ccc(Br)cc1Cl [Compound 24, (2E)-N-(4-bromo-2-chlorophenyl)-3-phenylprop-2-enamide]	0.6710	>766	0.58 ± 0.002	–	–	–
O=C(/C=C/c1ccccc1)Nc1cc(Br)ccc1F [Compound 20]	0.4875	199	> 35	–	–	–
O=C(/C=C/c1ccccc1)Nc1c(Br)cc(C(F)(F)F)cc1Br [Compound 36, (2E)-N-[2,6-dibromo-4-(trifluoromethyl)-phenyl]-3-phenylprop-2-enamide]	0.4321	>287	2 ± 1.9	–	–	–
CCN(CC)CCCC(C)Nc1ccnc2cc(Cl)ccc12 (stereo not shown) [CQ, chloroquine, reference compound]	–	–	0.5 ± 0.2	–	–	–
Cc1cccc(NC(=O)/C=C/c2ccccc2)c1 [Compound 2, (2E)-N-(3-methylphenyl)-3-phenyl-prop-2-enamide]	0.2729	67.4	21.6	–	–	21.9 ± 6.3

Compound	log k [1]	Mtb MIC [2] [µM]	IC50 [3, 5] [µM]	IC50 [4] [µM]	antiplasmodial activity in words [3]	IC50 [3] [µM]
O=C(/C=C/c1ccccc1)Nc1ccc(Cl)cc1Br [Compound 26]	0.5476	>383	> 35	–	–	–
O=C(/C=C/c1ccccc1)Nc1cc(C(F)(F)F)ccc1Cl [Compound 27]	0.6178	785	> 35	–	–	–
O=C(/C=C/c1ccccc1)Nc1c(Br)cccc1Br [Compound 14]	0.0992	167	> 35	–	–	–
NNC(=O)c1ccncc1 [INH, isoniazid, reference compound]	–	36.6	–	–	–	–
Cc1ccc(C)c(NC(=O)/C=C/c2ccccc2)c1 [Compound 7]	0.2691	254	> 35	–	–	–
O=C(/C=C/c1ccccc1)Nc1cc(Cl)c(Cl)cc1Cl [Compound 34]	0.8373	–	> 35	–	–	–
O=C(/C=C/c1ccccc1)Nc1ccc(Cl)cc1Cl [Compound 8]	0.5278	–	> 35	–	inactive	–
O=C(/C=C/c1ccccc1)Nc1c(F)cc(F)cc1F [Compound 32, (2E)-3-phenyl-N-(2,4,6-trifluorophenyl)-prop-2-enamide]	−0.0831	>462	> 35	–	–	–
COc1ccc([N+](=O)[O-])cc1NC(=O)/C=C/c1ccccc1 [Compound 16]	0.1581	>859	> 35	–	–	–
O=C(/C=C/c1ccccc1)Nc1cc(Cl)ccc1Cl [Compound 9]	0.5799	876	> 35	–	–	–
O=C(/C=C/c1ccccc1)Nc1cccc(C(F)(F)F)c1 [Compound 6]	0.4859	27.5	> 35	11.6 ± 1.13	–	–
O=C(/C=C/c1ccccc1)Nc1ccc(Br)c(F)c1 [Compound 21]	–	>414	10.3 ± 4.6	–	–	–
O=C(/C=C/c1ccccc1)Nc1cc(C(F)(F)F)ccc1Br [Compound 28]	0.5561	>348	> 35	–	–	–
O=C(/C=C/c1ccccc1)Nc1ccc([N+](=O)[O-])cc1C(F)(F)F [Compound 17]	0.3794	>381	> 35	–	–	–
O=C(/C=C/c1ccccc1)Nc1ccc(F)cc1C(F)(F)F [Compound 29]	0.1607	>414	> 35	–	–	–
Cc1ccc(NC(=O)/C=C/c2ccccc2)cc1 [Compound 3]	0.2640	134	> 35	–	–	–
O=C(/C=C/c1ccccc1)Nc1cc(F)c(F)c(F)c1 [Compound 33]	0.4893	>462	4.3 ± 2.4	–	–	–
O=C(/C=C/c1ccccc1)Nc1ccc(Br)cc1C(F)(F)F [Compound 31]	0.4683	>348	> 35	–	–	–
